Laboratory results as given in ChEMBL document CHEMBL3865792, “Antioxidant and antitumor activity of trolox, trolox succinate, and α-tocopheryl succinate conjugates with nitroxides” (Eur J Med Chem, 2016).

Tested on: not listed separately
Test: Genotoxicity in Escherichia coli PQ37 expressing lacZ gene assessed as ratio of inducible beta-galactosidase activity to alkaline phosphatase activity at 3 mM after 2 hrs by SOS-chromotest relative to control
Assay type: toxicity
Settings: Escherichia coli PQ37 cells expressing lacZ gene, read-out: FC

| SMILES | fold induction at 2 h, 3000 µM |
| --- | --- |
| CC1(C)CC(CNC(=O)CCC(=O)O)C(C)(C)N1[O] (stereo not drawn) | 1.3 |
| Cc1c(C)c2c(c(C)c1O)CC[C@@](C)(CCC[C@H](C)CCC[C@H](C)CCCC(C)C)O2 [ALPHA-TOCOPHEROL] | 1.28 |

Tested on: Salmonella typhimurium
Test: Genotoxicity in Salmonella typhimurium TA102 harboring […] mutant assessed as frequency of reversion from histidine auxotrophy to prototrophy at 30 mM after 48 hrs by Ames test (reference value: 209 +/- 10 No _unit)
Assay type: toxicity, organism-based
Settings: salmonella enterica subsp. enterica serovar typhimurium, 30000 µM

| SMILES | Activity |
| --- | --- |
| CC1(C)CC(CNC(=O)CCC(=O)O)C(C)(C)N1[O] (stereo not drawn) | 219 |
| Cc1c(C)c2c(c(C)c1O)CC[C@@](C)(CCC[C@H](C)CCC[C@H](C)CCCC(C)C)O2 [ALPHA-TOCOPHEROL] | 217 |

Tested on: Salmonella enterica subsp. enterica serovar Typhimurium
Test: Antioxidant activity in Salmonella typhimurium TA102 harboring […] mutant assessed as inhibition of t-BuO2H-dependant mutant formation at 0.3 uM preincubated with compound followed by t-BuO2H addition after 48 hrs by Ames test
Assay type: functional
Settings: not given

| SMILES | inhibition [%] |
| --- | --- |
| CC1(C)CC(CNC(=O)CCC(=O)O)C(C)(C)N1[O] (stereo not drawn) | 15 |
| Cc1c(C)c2c(c(C)c1O)CC[C@@](C)(CCC[C@H](C)CCC[C@H](C)CCCC(C)C)O2 [ALPHA-TOCOPHEROL] | 6 |

Tested on: Salmonella enterica subsp. enterica serovar Typhimurium
Test: Antioxidant activity in Salmonella typhimurium TA102 harboring […] mutant assessed as inhibition of t-BuO2H-dependant mutant formation at 3 uM preincubated with compound followed by t-BuO2H addition after 48 hrs by Ames test
Assay type: functional
Settings: not given

| SMILES | inhibition [%] |
| --- | --- |
| CC1(C)CC(CNC(=O)CCC(=O)O)C(C)(C)N1[O] (stereo not drawn) | 21 |
| Cc1c(C)c2c(c(C)c1O)CC[C@@](C)(CCC[C@H](C)CCC[C@H](C)CCCC(C)C)O2 [ALPHA-TOCOPHEROL] | 13 |

Tested on: Salmonella enterica subsp. enterica serovar Typhimurium
Test: Antioxidant activity in Salmonella typhimurium TA102 harboring […] mutant assessed as inhibition of t-BuO2H-dependant mutant formation at 30 uM preincubated with compound followed by t-BuO2H addition after 48 hrs by Ames test
Assay type: functional
Settings: not given

| SMILES | inhibition [%] |
| --- | --- |
| CC1(C)CC(CNC(=O)CCC(=O)O)C(C)(C)N1[O] (stereo not drawn) | 11 |
| Cc1c(C)c2c(c(C)c1O)CC[C@@](C)(CCC[C@H](C)CCC[C@H](C)CCCC(C)C)O2 [ALPHA-TOCOPHEROL] | 15 |

Tested on: not listed separately
Test: Cytotoxicity against human MCF7 cells assessed as reduction in cell viability after 72 hrs by MTT assay
Assay type: functional, cell-based
Settings: MCF7, 72 h

| SMILES | IC50 [µM] |
| --- | --- |
| CC1(C)CC(CNC(=O)CCC(=O)O)C(C)(C)N1[O] (stereo not drawn) | > 300 |
| Cc1c(C)c2c(c(C)c1O)CC[C@@](C)(CCC[C@H](C)CCC[C@H](C)CCCC(C)C)O2 [ALPHA-TOCOPHEROL] | > 300 |

Tested on: not listed separately
Test: Cytotoxicity against human RPMI8226 cells assessed as reduction in cell viability after 72 hrs by MTT assay
Assay type: functional, cell-based
Settings: RPMI-8226, 72 h

| SMILES | IC50 [µM] |
| --- | --- |
| CC1(C)CC(CNC(=O)CCC(=O)O)C(C)(C)N1[O] (stereo not drawn) | > 300 |
| Cc1c(C)c2c(c(C)c1O)CC[C@@](C)(CCC[C@H](C)CCC[C@H](C)CCCC(C)C)O2 [ALPHA-TOCOPHEROL] | > 300 |

Tested on: not listed separately
Test: Cytotoxicity against human HepG2 cells assessed as reduction in cell viability after 72 hrs by MTT assay
Assay type: functional, cell-based
Settings: HepG2, 72 h

| SMILES | IC50 [µM] |
| --- | --- |
| CC1(C)CC(CNC(=O)CCC(=O)O)C(C)(C)N1[O] (stereo not drawn) | > 300 |
| Cc1c(C)c2c(c(C)c1O)CC[C@@](C)(CCC[C@H](C)CCC[C@H](C)CCCC(C)C)O2 [ALPHA-TOCOPHEROL] | > 300 |

Tested on: not listed separately
Test: Cytotoxicity against human CEM13 cells assessed as reduction in cell viability after 72 hrs by MTT assay
Assay type: functional, cell-based
Settings: CEM13, 72 h

| SMILES | IC50 [µM] |
| --- | --- |
| CC1(C)CC(CNC(=O)CCC(=O)O)C(C)(C)N1[O] (stereo not drawn) | > 400 |
| Cc1c(C)c2c(c(C)c1O)CC[C@@](C)(CCC[C@H](C)CCC[C@H](C)CCCC(C)C)O2 [ALPHA-TOCOPHEROL] | > 300 |

Tested on: not listed separately
Test: Cytotoxicity against human U937 cells assessed as reduction in cell viability after 72 hrs by MTT assay
Assay type: functional, cell-based
Settings: U-937, 72 h

| SMILES | IC50 [µM] |
| --- | --- |
| CC1(C)CC(CNC(=O)CCC(=O)O)C(C)(C)N1[O] (stereo not drawn) | 282 |
| Cc1c(C)c2c(c(C)c1O)CC[C@@](C)(CCC[C@H](C)CCC[C@H](C)CCCC(C)C)O2 [ALPHA-TOCOPHEROL] | 100 |

Tested on: not listed separately
Test: Cytotoxicity against human MT4 cells assessed as reduction in cell viability after 72 hrs by MTT assay
Assay type: functional, cell-based
Settings: MT4, 72 h

| SMILES | IC50 [µM] |
| --- | --- |
| CC1(C)CC(CNC(=O)CCC(=O)O)C(C)(C)N1[O] (stereo not drawn) | > 400 |
| Cc1c(C)c2c(c(C)c1O)CC[C@@](C)(CCC[C@H](C)CCC[C@H](C)CCCC(C)C)O2 [ALPHA-TOCOPHEROL] | 165 |

Tested on: not listed separately
Test: Cytotoxicity against mouse LMTK cells assessed as reduction in cell viability after 72 hrs by MTT assay
Assay type: toxicity
Settings: not given

| SMILES | IC50 at 72 h [µM] |
| --- | --- |
| CC1(C)CC(CNC(=O)CCC(=O)O)C(C)(C)N1[O] (stereo not drawn) | > 300 |
| Cc1c(C)c2c(c(C)c1O)CC[C@@](C)(CCC[C@H](C)CCC[C@H](C)CCCC(C)C)O2 [ALPHA-TOCOPHEROL] | > 300 |

Tested on: not listed separately
Test: Cytotoxicity against hamster AG17-1 cells assessed as reduction in cell viability after 72 hrs by MTT assay
Assay type: toxicity, cell-based, Cricetulus griseus
Settings: Chinese hamster

| SMILES | IC50 at 72 h [µM] |
| --- | --- |
| CC1(C)CC(CNC(=O)CCC(=O)O)C(C)(C)N1[O] (stereo not drawn) | > 300 |
| Cc1c(C)c2c(c(C)c1O)CC[C@@](C)(CCC[C@H](C)CCC[C@H](C)CCCC(C)C)O2 [ALPHA-TOCOPHEROL] | > 300 |

Tested on: not listed separately
Test: Cytotoxicity against human MCF7 cells assessed as reduction in cell viability at 300 uM after 72 hrs by MTT assay
Assay type: functional
Settings: MCF7, 72 h

| SMILES | inhibition at 300 µM [%] |
| --- | --- |
| CC1(C)CC(CNC(=O)CCC(=O)O)C(C)(C)N1[O] (stereo not drawn) | 24 |
| Cc1c(C)c2c(c(C)c1O)CC[C@@](C)(CCC[C@H](C)CCC[C@H](C)CCCC(C)C)O2 [ALPHA-TOCOPHEROL] | 37 |

Tested on: not listed separately
Test: Cytotoxicity against human RPMI8226 cells assessed as reduction in cell viability at 300 uM after 72 hrs by MTT assay
Assay type: functional
Settings: RPMI-8226, 72 h

| SMILES | inhibition at 300 µM [%] |
| --- | --- |
| CC1(C)CC(CNC(=O)CCC(=O)O)C(C)(C)N1[O] (stereo not drawn) | 13 |
| Cc1c(C)c2c(c(C)c1O)CC[C@@](C)(CCC[C@H](C)CCC[C@H](C)CCCC(C)C)O2 [ALPHA-TOCOPHEROL] | 0 |

Tested on: not listed separately
Test: Cytotoxicity against human HepG2 cells assessed as reduction in cell viability at 300 uM after 72 hrs by MTT assay
Assay type: functional
Settings: HepG2, 72 h

| SMILES | inhibition at 300 µM [%] |
| --- | --- |
| CC1(C)CC(CNC(=O)CCC(=O)O)C(C)(C)N1[O] (stereo not drawn) | 0 |
| Cc1c(C)c2c(c(C)c1O)CC[C@@](C)(CCC[C@H](C)CCC[C@H](C)CCCC(C)C)O2 [ALPHA-TOCOPHEROL] | 0 |

Tested on: not listed separately
Test: Cytotoxicity against human CEM13 cells assessed as reduction in cell viability at 300 uM after 72 hrs by MTT assay
Assay type: functional
Settings: CEM13, 72 h

| SMILES | inhibition at 300 µM [%] |
| --- | --- |
| Cc1c(C)c2c(c(C)c1O)CC[C@@](C)(CCC[C@H](C)CCC[C@H](C)CCCC(C)C)O2 [ALPHA-TOCOPHEROL] | 35 |

Tested on: not listed separately
Test: Cytotoxicity against mouse LMTK cells assessed as reduction in cell viability at 300 uM after 72 hrs by MTT assay
Assay type: toxicity
Settings: read-out: INH

| SMILES | cytotoxicity at 72 h, 300 µM [%] |
| --- | --- |
| CC1(C)CC(CNC(=O)CCC(=O)O)C(C)(C)N1[O] (stereo not drawn) | 0 |
| Cc1c(C)c2c(c(C)c1O)CC[C@@](C)(CCC[C@H](C)CCC[C@H](C)CCCC(C)C)O2 [ALPHA-TOCOPHEROL] | 28 |

Tested on: not listed separately
Test: Cytotoxicity against hamster AG17-1 cells assessed as reduction in cell viability at 300 uM after 72 hrs by MTT assay
Assay type: toxicity, cell-based, Cricetulus griseus
Settings: Chinese hamster, read-out: INH

| SMILES | cytotoxicity at 72 h, 300 µM [%] |
| --- | --- |
| CC1(C)CC(CNC(=O)CCC(=O)O)C(C)(C)N1[O] (stereo not drawn) | 0 |
| Cc1c(C)c2c(c(C)c1O)CC[C@@](C)(CCC[C@H](C)CCC[C@H](C)CCCC(C)C)O2 [ALPHA-TOCOPHEROL] | 12 |

Tested on: not listed separately
Test: Ratio of IC50 for human MCF7 cells to concentration causing antioxidant activity in Salmonella typhimurium TA102 harboring […] mutant
Assay type: functional
Settings: not given

| SMILES | Ratio |
| --- | --- |
| CC1(C)CC(CNC(=O)CCC(=O)O)C(C)(C)N1[O] (stereo not drawn) | 100 - 1000 |

Tested on: not listed separately
Test: Ratio of IC50 for human RPMI8226 cells to concentration causing antioxidant activity in Salmonella typhimurium TA102 harboring […] mutant
Assay type: functional, RPMI-8226
Settings: not given

| SMILES | Ratio |
| --- | --- |
| CC1(C)CC(CNC(=O)CCC(=O)O)C(C)(C)N1[O] (stereo not drawn) | 100 - 1000 |

Tested on: not listed separately
Test: Ratio of IC50 for human HEPG2 cells to concentration causing antioxidant activity in Salmonella typhimurium TA102 harboring […] mutant
Assay type: functional
Settings: not given

| SMILES | Ratio |
| --- | --- |
| CC1(C)CC(CNC(=O)CCC(=O)O)C(C)(C)N1[O] (stereo not drawn) | 100 - 1000 |

Tested on: not listed separately
Test: Ratio of IC50 for human CEM13 cells to concentration causing antioxidant activity in Salmonella typhimurium TA102 harboring […] mutant
Assay type: functional
Settings: not given

| SMILES | Ratio |
| --- | --- |
| CC1(C)CC(CNC(=O)CCC(=O)O)C(C)(C)N1[O] (stereo not drawn) | 100 - 1000 |

Tested on: not listed separately
Test: Ratio of IC50 for human MT4 cells to concentration causing antioxidant activity in Salmonella typhimurium TA102 harboring […] mutant
Assay type: functional
Settings: not given

| SMILES | Ratio |
| --- | --- |
| CC1(C)CC(CNC(=O)CCC(=O)O)C(C)(C)N1[O] (stereo not drawn) | 100 - 1000 |

Tested on: not listed separately
Test: Ratio of IC50 for human U937 cells to concentration causing antioxidant activity in Salmonella typhimurium TA102 harboring […] mutant
Assay type: functional, U-937
Settings: not given

| SMILES | Ratio |
| --- | --- |
| CC1(C)CC(CNC(=O)CCC(=O)O)C(C)(C)N1[O] (stereo not drawn) | 100 - 1000 |
